The values that follow come from article PMC5030134 (Nature chemical biology, 2016).

In this assay the target is T1, α-xylosidase (Xylsa) (Saccharolobus solfataricus, UniProt Q9P999).
T1 sequence (Q9P999 1-731): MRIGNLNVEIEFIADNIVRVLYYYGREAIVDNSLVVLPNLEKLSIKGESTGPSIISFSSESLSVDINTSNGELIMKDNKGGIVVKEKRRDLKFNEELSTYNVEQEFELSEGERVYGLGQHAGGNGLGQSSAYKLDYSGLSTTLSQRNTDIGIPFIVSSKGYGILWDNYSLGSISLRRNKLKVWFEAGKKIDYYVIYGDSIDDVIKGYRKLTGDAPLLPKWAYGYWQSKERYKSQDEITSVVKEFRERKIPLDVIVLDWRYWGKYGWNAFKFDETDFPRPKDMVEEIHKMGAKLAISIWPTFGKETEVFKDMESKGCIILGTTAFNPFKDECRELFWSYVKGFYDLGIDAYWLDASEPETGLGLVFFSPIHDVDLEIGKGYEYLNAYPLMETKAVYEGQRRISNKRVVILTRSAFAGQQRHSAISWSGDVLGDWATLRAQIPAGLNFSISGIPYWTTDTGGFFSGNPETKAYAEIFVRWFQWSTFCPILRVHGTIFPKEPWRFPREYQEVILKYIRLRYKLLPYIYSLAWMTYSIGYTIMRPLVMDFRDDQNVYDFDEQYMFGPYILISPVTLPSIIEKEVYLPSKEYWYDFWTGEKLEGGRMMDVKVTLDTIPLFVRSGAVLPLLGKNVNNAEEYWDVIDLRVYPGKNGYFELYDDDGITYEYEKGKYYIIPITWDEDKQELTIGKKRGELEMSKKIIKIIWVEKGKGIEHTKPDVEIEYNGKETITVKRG
Description: HPLC and ESI-MS of digestion product. The class given is biochemical. Conditions: 150 mM sodium acetate pH 5.5, 65 °C, 3 h; second step, gives G3.

Take `Cc1cc(=O)oc2cc(O[C@@H]3O[C@H](C(=O)O)[C@@H](O)[C@H](O[C@H]4OC[C@@H](O)[C@H](O[C@@H]5O[C@H](C(=O)O)[C@@H](O)[C@H](O[C@H]6OC[C@@H](O)[C@H](O)[C@H]6O)[C@H]5O)[C@H]4O)[C@H]3O)ccc12` [G4]: the “HPLC and ESI-MS of digestion product” value was “The product of the first step of G5 digestion was incubated with Xylsa”.
